Measured values taken from ChEMBL document CHEMBL3885881, “DrugMatrix”.

Organism: Rattus norvegicus
Assay: DrugMatrix - Regimen: Daily Repeat
Format: toxicity, organism-based, Sprague-Dawley
Parameters: regimen Daily Repeat, gender Male, age 6-8 weeks
Details: in vivo, po, route oral GAVAGE, vehicle 100 % WATER; for BASOPHIL / EOSINOPHIL / ERYTHROCYTE COUNT / HEMATOCRIT / HEMOGLOBIN / LEUKOCYTE COUNT / LYMPHOCYTE / MEAN CORPUSCULAR HEMOGLOBIN / MEAN CORPUSCULAR HEMOGLOBIN CONCENTRATION / MEAN CORPUSCULAR VOLUME / MONOCYTE / NEUTROPHIL / PLATELET COUNT: tissue Blood; for ALANINE AMINOTRANSFERASE / ALBUMIN / ALKALINE PHOSPHATASE / ASPARTATE AMINOTRANSFERASE / BLOOD UREA NITROGEN / CARBON DIOXIDE / CHLORIDE / CHOLESTEROL / CREATINE PHOSPHOKINASE / CREATININE / GLUCOSE / LACTATE DEHYDROGENASE / LIPASE / PHOSPHORUS / POTASSIUM / SODIUM / TOTAL BILIRUBIN / TOTAL PROTEIN / URIC ACID: tissue Plasma
[1] = 0 mg/kg, 96 h, dose level Control, time 4 day
[2] = 0 mg/kg, […], dose level Control, time 6 day
[3] = 0 mg/kg, […], dose level Control, time 14 day
[4] = 4000 mg/kg, 96 h, dose level High, time 4 day
[5] = 4000 mg/kg, […], dose level High, time 6 day
[6] = 4000 mg/kg, […], dose level High, time 14 day

CC(C)=O [ACETONE]
BASOPHIL [1]: 0.47% | EOSINOPHIL [1]: 0.58% | ERYTHROCYTE COUNT [1]: 6.84 x10E6/uL | HEMATOCRIT [1]: 44.27% | HEMOGLOBIN [1]: 14.08 G/DL | LEUKOCYTE COUNT [1]: 13.39 x10E3/uL | LYMPHOCYTE [1]: 83.57% | MEAN CORPUSCULAR HEMOGLOBIN [1]: 20.57 pg | MEAN CORPUSCULAR HEMOGLOBIN CONCENTRATION [1]: 31.77 G/DL | MEAN CORPUSCULAR VOLUME [1]: 64.68 fL | MONOCYTE [1]: 1.92% | NEUTROPHIL [1]: 12.95% | PLATELET COUNT [1]: 1533.67 x10E3/uL | ALANINE AMINOTRANSFERASE [1]: 28.17 u/L | ALBUMIN [1]: 3.82 G/DL | ALKALINE PHOSPHATASE [1]: 354.33 u/L | ASPARTATE AMINOTRANSFERASE [1]: 73.83 u/L | BLOOD UREA NITROGEN [1]: 16 mg/dL | CARBON DIOXIDE [1]: 27.17 mmol/L | CHLORIDE [1]: 104.83 MEQ/L | CHOLESTEROL [1]: 83.33 mg/dL | CREATINE PHOSPHOKINASE [1]: 288 u/L | CREATININE [1]: 0.33 mg/dL | GLUCOSE [1]: 181.33 mg/dL | LACTATE DEHYDROGENASE [1]: 173.17 u/L | LIPASE [1]: 17.67 u/L | PHOSPHORUS [1]: 11.5 mg/dL | POTASSIUM [1]: 6.8 MEQ/L | SODIUM [1]: 147 MEQ/L | TOTAL BILIRUBIN [1]: 0.35 mg/dL | TOTAL PROTEIN [1]: 6.35 G/DL | URIC ACID [1]: 1.55 mg/dL | BASOPHIL [2]: 0.33% | EOSINOPHIL [2]: 0.85% | ERYTHROCYTE COUNT [2]: 6.98 x10E6/uL | HEMATOCRIT [2]: 38.58% | HEMOGLOBIN [2]: 14.25 G/DL | LEUKOCYTE COUNT [2]: 11.01 x10E3/uL | LYMPHOCYTE [2]: 85.07% | MEAN CORPUSCULAR HEMOGLOBIN [2]: 20.47 pg | MEAN CORPUSCULAR HEMOGLOBIN CONCENTRATION [2]: 31.45 G/DL | MEAN CORPUSCULAR VOLUME [2]: 64.9 fL | MONOCYTE [2]: 1.9% | NEUTROPHIL [2]: 11.42% | PLATELET COUNT [2]: 1289.67 x10E3/uL | BASOPHIL [3]: 0.52% | EOSINOPHIL [3]: 0.55% | ERYTHROCYTE COUNT [3]: 7.72 x10E6/uL | HEMATOCRIT [3]: 51.87% | HEMOGLOBIN [3]: 15.32 G/DL | LEUKOCYTE COUNT [3]: 16.2 x10E3/uL | LYMPHOCYTE [3]: 85.13% | MEAN CORPUSCULAR HEMOGLOBIN [3]: 19.85 pg | MEAN CORPUSCULAR HEMOGLOBIN CONCENTRATION [3]: 29.52 G/DL | MEAN CORPUSCULAR VOLUME [3]: 67.17 fL | MONOCYTE [3]: 1.7% | NEUTROPHIL [3]: 11.6% | PLATELET COUNT [3]: 1104.17 x10E3/uL | ALANINE AMINOTRANSFERASE [2]: 28.17 u/L | ALBUMIN [2]: 3.78 G/DL | ALKALINE PHOSPHATASE [2]: 385.33 u/L | ASPARTATE AMINOTRANSFERASE [2]: 78 u/L | BLOOD UREA NITROGEN [2]: 16.83 mg/dL | CARBON DIOXIDE [2]: 26.67 mmol/L | CHLORIDE [2]: 106.83 MEQ/L | CHOLESTEROL [2]: 82.67 mg/dL | CREATINE PHOSPHOKINASE [2]: 225.5 u/L | CREATININE [2]: 0.27 mg/dL | GLUCOSE [2]: 179.5 mg/dL | LACTATE DEHYDROGENASE [2]: 98.33 u/L | LIPASE [2]: 14.67 u/L | PHOSPHORUS [2]: 12.28 mg/dL | POTASSIUM [2]: 7.03 MEQ/L | SODIUM [2]: 150.33 MEQ/L | TOTAL BILIRUBIN [2]: 0.38 mg/dL | TOTAL PROTEIN [2]: 6.45 G/DL | URIC ACID [2]: 1.6 mg/dL | ALANINE AMINOTRANSFERASE [3]: 37 u/L | ALBUMIN [3]: 4.13 G/DL | ALKALINE PHOSPHATASE [3]: 342 u/L | ASPARTATE AMINOTRANSFERASE [3]: 71 u/L | BLOOD UREA NITROGEN [3]: 16.5 mg/dL | CARBON DIOXIDE [3]: 28.17 mmol/L | CHLORIDE [3]: 104 MEQ/L | CHOLESTEROL [3]: 70.67 mg/dL | CREATINE PHOSPHOKINASE [3]: 287.67 u/L | CREATININE [3]: 0.38 mg/dL | GLUCOSE [3]: 150.17 mg/dL | LACTATE DEHYDROGENASE [3]: 81.33 u/L | LIPASE [3]: 16 u/L | PHOSPHORUS [3]: 11.32 mg/dL | POTASSIUM [3]: 6.22 MEQ/L | SODIUM [3]: 147.33 MEQ/L | TOTAL BILIRUBIN [3]: 0.43 mg/dL | TOTAL PROTEIN [3]: 6.55 G/DL | URIC ACID [3]: 1.38 mg/dL | BASOPHIL [4]: 0.37% | EOSINOPHIL [4]: 0.2% | ERYTHROCYTE COUNT [4]: 7.37 x10E6/uL | HEMATOCRIT [4]: 47.5% | HEMOGLOBIN [4]: 15.37 G/DL | LEUKOCYTE COUNT [4]: 10.01 x10E3/uL | LYMPHOCYTE [4]: 77.97% | MEAN CORPUSCULAR HEMOGLOBIN [4]: 20.83 pg | MEAN CORPUSCULAR HEMOGLOBIN CONCENTRATION [4]: 32.37 G/DL | MEAN CORPUSCULAR VOLUME [4]: 64.47 fL | MONOCYTE [4]: 2.73% | NEUTROPHIL [4]: 18.23% | PLATELET COUNT [4]: 1486.67 x10E3/uL | ALANINE AMINOTRANSFERASE [4]: 47 u/L | ALBUMIN [4]: 3.73 G/DL | ALKALINE PHOSPHATASE [4]: 277.67 u/L | ASPARTATE AMINOTRANSFERASE [4]: 87.33 u/L | BLOOD UREA NITROGEN [4]: 12.67 mg/dL | CARBON DIOXIDE [4]: 30.67 mmol/L | CHLORIDE [4]: 103.33 MEQ/L | CHOLESTEROL [4]: 117.33 mg/dL | CREATINE PHOSPHOKINASE [4]: 390.33 u/L | CREATININE [4]: 0.53 mg/dL | GLUCOSE [4]: 176.33 mg/dL | LACTATE DEHYDROGENASE [4]: 159 u/L | LIPASE [4]: 27 u/L | PHOSPHORUS [4]: 11 mg/dL | POTASSIUM [4]: 5.6 MEQ/L | SODIUM [4]: 149 MEQ/L | TOTAL BILIRUBIN [4]: 0.27 mg/dL | TOTAL PROTEIN [4]: 6.37 G/DL | URIC ACID [4]: 1.23 mg/dL | BASOPHIL [5]: 0.23% | EOSINOPHIL [5]: 0.27% | ERYTHROCYTE COUNT [5]: 7.31 x10E6/uL | HEMATOCRIT [5]: 47.27% | HEMOGLOBIN [5]: 14.77 G/DL | LEUKOCYTE COUNT [5]: 10.16 x10E3/uL | LYMPHOCYTE [5]: 86.07% | MEAN CORPUSCULAR HEMOGLOBIN [5]: 20.17 pg | MEAN CORPUSCULAR HEMOGLOBIN CONCENTRATION [5]: 31.23 G/DL | MEAN CORPUSCULAR VOLUME [5]: 64.67 fL | MONOCYTE [5]: 2.77% | NEUTROPHIL [5]: 9.93% | PLATELET COUNT [5]: 1168.67 x10E3/uL | BASOPHIL [6]: 0.3% | EOSINOPHIL [6]: 0.38% | ERYTHROCYTE COUNT [6]: 8.11 x10E6/uL | HEMATOCRIT [6]: 55.22% | HEMOGLOBIN [6]: 16.28 G/DL | LEUKOCYTE COUNT [6]: 7.38 x10E3/uL | LYMPHOCYTE [6]: 78.4% | MEAN CORPUSCULAR HEMOGLOBIN [6]: 20.06 pg | MEAN CORPUSCULAR HEMOGLOBIN CONCENTRATION [6]: 29.48 G/DL | MEAN CORPUSCULAR VOLUME [6]: 68.1 fL | MONOCYTE [6]: 2.1% | NEUTROPHIL [6]: 18.48% | PLATELET COUNT [6]: 1123.2 x10E3/uL | ALANINE AMINOTRANSFERASE [5]: 59.33 u/L | ALBUMIN [5]: 3.83 G/DL | ALKALINE PHOSPHATASE [5]: 274 u/L | ASPARTATE AMINOTRANSFERASE [5]: 91.33 u/L | BLOOD UREA NITROGEN [5]: 17.33 mg/dL | CARBON DIOXIDE [5]: 27.67 mmol/L | CHLORIDE [5]: 107 MEQ/L | CHOLESTEROL [5]: 112 mg/dL | CREATINE PHOSPHOKINASE [5]: 187.67 u/L | CREATININE [5]: 0.37 mg/dL | GLUCOSE [5]: 172.33 mg/dL | LACTATE DEHYDROGENASE [5]: 78 u/L | LIPASE [5]: 11.33 u/L | PHOSPHORUS [5]: 12.07 mg/dL | POTASSIUM [5]: 6.83 MEQ/L | SODIUM [5]: 152 MEQ/L | TOTAL BILIRUBIN [5]: 0.33 mg/dL | TOTAL PROTEIN [5]: 6.57 G/DL | URIC ACID [5]: 1.5 mg/dL | ALANINE AMINOTRANSFERASE [6]: 84.2 u/L | ALBUMIN [6]: 4.12 G/DL | ALKALINE PHOSPHATASE [6]: 230.4 u/L | ASPARTATE AMINOTRANSFERASE [6]: 95.6 u/L | BLOOD UREA NITROGEN [6]: 15.2 mg/dL | CARBON DIOXIDE [6]: 30.6 mmol/L | CHLORIDE [6]: 104 MEQ/L | CHOLESTEROL [6]: 129.2 mg/dL | CREATINE PHOSPHOKINASE [6]: 256 u/L | CREATININE [6]: 0.54 mg/dL | GLUCOSE [6]: 144.8 mg/dL | LACTATE DEHYDROGENASE [6]: 59 u/L | LIPASE [6]: 22.2 u/L | PHOSPHORUS [6]: 11.14 mg/dL | POTASSIUM [6]: 6.2 MEQ/L | SODIUM [6]: 149.8 MEQ/L | TOTAL BILIRUBIN [6]: 0.42 mg/dL | TOTAL PROTEIN [6]: 6.66 G/DL | URIC ACID [6]: 1.5 mg/dL
